Test system: 782815-120-R-J1-PDC complex spheroid viability
Assay: Anticancer human tumor 782815-120-R-J1-PDC patient-derived colon adenocarcinoma cell line growth inhibition [RAS]
Settings: for IC50: curve of first compound; for viability, T/C: stronger effect = lower value
Summary of the method: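 Multi-cell-type spheroids: tumor cells plus HUVEC endothelial cells and mesenchymal stem cells. RAS-pathway inhibitors were combined with targeted agents, each dosed in half-log steps down from clinical Cmax, or from 10 microM when Cmax was unknown.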

[1] = second compound 0.0316 µM, first compound 0.00316 µM
[2] = second compound 0.0316 µM, first compound 0.01 µM
[3] = second compound 0.0316 µM, first compound 0.0316 µM
[4] = second compound 0.0316 µM, first compound 0.1 µM
[5] = second compound 0.0316 µM, first compound 0.316 µM
[6] = second compound 0.0316 µM, first compound 1 µM
[7] = second compound 0.1 µM, first compound 0.00316 µM
[8] = second compound 0.1 µM, first compound 0.01 µM
[9] = second compound 0.1 µM, first compound 0.0316 µM
[10] = second compound 0.1 µM, first compound 0.1 µM
[11] = second compound 0.1 µM, first compound 0.316 µM
[12] = second compound 0.1 µM, first compound 1 µM
[13] = second compound 0.316 µM, first compound 0.00316 µM
[14] = second compound 0.316 µM, first compound 0.01 µM
[15] = second compound 0.316 µM, first compound 0.0316 µM
[16] = second compound 0.316 µM, first compound 0.1 µM
[17] = second compound 0.316 µM, first compound 0.316 µM
[18] = second compound 0.316 µM, first compound 1 µM
[19] = second compound 1 µM, first compound 0.00316 µM
[20] = second compound 1 µM, first compound 0.01 µM
[21] = second compound 1 µM, first compound 0.0316 µM
[22] = second compound 1 µM, first compound 0.1 µM
[23] = second compound 1 µM, first compound 0.316 µM
[24] = second compound 1 µM, first compound 1 µM
[25] = second compound 3.16 µM, first compound 0.00316 µM
[26] = second compound 3.16 µM, first compound 0.01 µM
[27] = second compound 3.16 µM, first compound 0.0316 µM
[28] = second compound 3.16 µM, first compound 0.1 µM
[29] = second compound 3.16 µM, first compound 0.316 µM
[30] = second compound 3.16 µM, first compound 1 µM
[31] = second compound 10 µM, first compound 0.00316 µM
[32] = second compound 10 µM, first compound 0.01 µM
[33] = second compound 10 µM, first compound 0.0316 µM
[34] = second compound 10 µM, first compound 0.1 µM
[35] = second compound 10 µM, first compound 0.316 µM
[36] = second compound 10 µM, first compound 1 µM
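Further: spheroids exposed to compounds for 7 days before reading.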
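Wherever viability, T/C is given: 100% = DMSO vehicle control viability.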

## O=C(c1ccc(F)c(F)c1Nc1ccc(I)cc1F)N1CC(O)([C@@H]2CCCCN2)C1 + C#Cc1c(F)ccc2cc(O)cc(-c3ncc4c(N5CC6CCC(C5)N6)nc(OCC56CCCN5CC(F)C6)nc4c3F)c12
Second compound 0.0316 µM
  IC50: 84.7 nM
Second compound 0.1 µM
  IC50: 57 nM
Second compound 0.316 µM
  IC50: 65.9 nM
Second compound 1 µM
  IC50: 79 nM
Second compound 3.16 µM
  IC50: 54.3 nM
Second compound 10 µM
  IC50: 58.3 nM
[1]
  viability, T/C: 95.6%
[2]
  viability, T/C: 95%
[3]
  viability, T/C: 66%
[4]
  viability, T/C: 47.1%
[5]
  viability, T/C: 23.6%
[6]
  viability, T/C: 3.7%
[7]
  viability, T/C: 97.4%
[8]
  viability, T/C: 81%
[9]
  viability, T/C: 61.5%
[10]
  viability, T/C: 38.6%
[11]
  viability, T/C: 20.8%
[12]
  viability, T/C: 4.18%
[13]
  viability, T/C: 98.7%
[14]
  viability, T/C: 88.4%
[15]
  viability, T/C: 63.1%
[16]
  viability, T/C: 42.2%
[17]
  viability, T/C: 19.1%
[18]
  viability, T/C: 2.93%
[19]
  viability, T/C: 97.8%
[20]
  viability, T/C: 85.4%
[21]
  viability, T/C: 69.7%
[22]
  viability, T/C: 46.5%
[23]
  viability, T/C: 18.1%
[24]
  viability, T/C: 1.87%
[25]
  viability, T/C: 99.4%
[26]
  viability, T/C: 85.9%
[27]
  viability, T/C: 59.1%
[28]
  viability, T/C: 40.7%
[29]
  viability, T/C: 10.4%
[30]
  viability, T/C: 0.92%
[31]
  viability, T/C: 98.4%
[32]
  viability, T/C: 88.3%
[33]
  viability, T/C: 61.4%
[34]
  viability, T/C: 41.2%
[35]
  viability, T/C: 10.1%
[36]
  viability, T/C: 0.5%

## CCN1CCN(Cc2ccc(Nc3ncc(F)c(-c4cc(F)c5nc(C)n(C(C)C)c5c4)n3)nc2)CC1 + C#Cc1c(F)ccc2cc(O)cc(-c3ncc4c(N5CC6CCC(C5)N6)nc(OCC56CCCN5CC(F)C6)nc4c3F)c12
Second compound 0.0316 µM
  IC50: > 1000 nM
Second compound 0.1 µM
  IC50: > 1000 nM
Second compound 0.316 µM
  IC50: > 1000 nM
Second compound 1 µM
  IC50: > 1000 nM
Second compound 3.16 µM
  IC50: > 1000 nM
Second compound 10 µM
  IC50: > 1000 nM
[1]
  viability, T/C: 103%
[2]
  viability, T/C: 105%
[3]
  viability, T/C: 112%
[4]
  viability, T/C: 102%
[5]
  viability, T/C: 109%
[6]
  viability, T/C: 123%
[7]
  viability, T/C: 107%
[8]
  viability, T/C: 104%
[9]
  viability, T/C: 95.8%
[10]
  viability, T/C: 104%
[11]
  viability, T/C: 113%
[12]
  viability, T/C: 130%
[13]
  viability, T/C: 108%
[14]
  viability, T/C: 101%
[15]
  viability, T/C: 100%
[16]
  viability, T/C: 110%
[17]
  viability, T/C: 106%
[18]
  viability, T/C: 119%
[19]
  viability, T/C: 110%
[20]
  viability, T/C: 109%
[21]
  viability, T/C: 108%
[22]
  viability, T/C: 103%
[23]
  viability, T/C: 111%
[24]
  viability, T/C: 113%
[25]
  viability, T/C: 103%
[26]
  viability, T/C: 99.2%
[27]
  viability, T/C: 101%
[28]
  viability, T/C: 104%
[29]
  viability, T/C: 128%
[30]
  viability, T/C: 119%
[31]
  viability, T/C: 109%
[32]
  viability, T/C: 107%
[33]
  viability, T/C: 95.3%
[34]
  viability, T/C: 107%
[35]
  viability, T/C: 120%
[36]
  viability, T/C: 125%

## CC(=O)OC12COC1CC(O)C1(C)C(=O)C(O)C3=C(C)C(OC(=O)C(O)C(NC(=O)OC(C)(C)C)c4ccccc4)CC(O)(C(OC(=O)c4ccccc4)C21)C3(C)C (stereo unspecified) + CCn1c(-c2cc(N3CCN(C)CC3)cnc2C(C)OC)c2c3cc(ccc31)-c1csc(n1)CC(NC(=O)C1CC1C)C(=O)N1CCCC(N1)C(=O)OCC(C)(C)C2
Second compound 0.000949 µM
  IC50: < 31.6 nM
Second compound 0.003 µM
  IC50: < 31.6 nM
Second compound 0.00949 µM
  IC50: < 31.6 nM
Second compound 0.03 µM
  IC50: < 31.6 nM
Second compound 0.0949 µM
  IC50: < 31.6 nM
Second compound 0.3 µM
  IC50: < 31.6 nM
Second compound 0.000949 µM, first compound 0.0316 µM
  viability, T/C: 26%
Second compound 0.000949 µM, first compound 0.1 µM
  viability, T/C: 27.8%
Second compound 0.000949 µM, first compound 0.316 µM
  viability, T/C: 23.1%
Second compound 0.000949 µM, first compound 1 µM
  viability, T/C: 28.1%
Second compound 0.000949 µM, first compound 3.16 µM
  viability, T/C: 27.1%
Second compound 0.000949 µM, first compound 10 µM
  viability, T/C: 32.5%
Second compound 0.003 µM, first compound 0.0316 µM
  viability, T/C: 25.8%
Second compound 0.003 µM, first compound 0.1 µM
  viability, T/C: 24.6%
Second compound 0.003 µM, first compound 0.316 µM
  viability, T/C: 23.2%
Second compound 0.003 µM, first compound 1 µM
  viability, T/C: 22%
Second compound 0.003 µM, first compound 3.16 µM
  viability, T/C: 21.3%
Second compound 0.003 µM, first compound 10 µM
  viability, T/C: 25.7%
Second compound 0.00949 µM, first compound 0.0316 µM
  viability, T/C: 19.1%
Second compound 0.00949 µM, first compound 0.1 µM
  viability, T/C: 16.4%
Second compound 0.00949 µM, first compound 0.316 µM
  viability, T/C: 15.1%
Second compound 0.00949 µM, first compound 1 µM
  viability, T/C: 16.4%
Second compound 0.00949 µM, first compound 3.16 µM
  viability, T/C: 19.1%
Second compound 0.00949 µM, first compound 10 µM
  viability, T/C: 16.1%
Second compound 0.03 µM, first compound 0.0316 µM
  viability, T/C: 12.5%
Second compound 0.03 µM, first compound 0.1 µM
  viability, T/C: 13.5%
Second compound 0.03 µM, first compound 0.316 µM
  viability, T/C: 13.3%
Second compound 0.03 µM, first compound 1 µM
  viability, T/C: 13.3%
Second compound 0.03 µM, first compound 3.16 µM
  viability, T/C: 14.8%
Second compound 0.03 µM, first compound 10 µM
  viability, T/C: 13.3%
Second compound 0.0949 µM, first compound 0.0316 µM
  viability, T/C: 12.6%
Second compound 0.0949 µM, first compound 0.1 µM
  viability, T/C: 12.4%
Second compound 0.0949 µM, first compound 0.316 µM
  viability, T/C: 10.3%
Second compound 0.0949 µM, first compound 1 µM
  viability, T/C: 12.2%
Second compound 0.0949 µM, first compound 3.16 µM
  viability, T/C: 11.3%
Second compound 0.0949 µM, first compound 10 µM
  viability, T/C: 11.3%
Second compound 0.3 µM, first compound 0.0316 µM
  viability, T/C: 13%
Second compound 0.3 µM, first compound 0.1 µM
  viability, T/C: 12.6%
Second compound 0.3 µM, first compound 0.316 µM
  viability, T/C: 9.92%
Second compound 0.3 µM, first compound 1 µM
  viability, T/C: 9.28%
Second compound 0.3 µM, first compound 3.16 µM
  viability, T/C: 10.9%
Second compound 0.3 µM, first compound 10 µM
  viability, T/C: 13%
